Measurements taken from ChEMBL document CHEMBL1201862, “PubChem BioAssay data set” (2004).
Active and inactive are the calls of the source.

Tests used:
[1] = Glucagon-like peptide 1 release potency, NCI-H716 cell line, dose-response, half-maximal inhibitory concentration (AID 1117344); format: functional, cell-based
[2] = half-maximal inhibitory concentration for glucagon-like peptide-1 release, STC-1 cell line, dose-response (AID 1117345); format: functional, cell-based
Transthyretin = Transthyretin (Homo sapiens, UniProt P02766); assay: Luminescence-based cell-based high throughput dose response assay to identify activators of Transthyretin (TTR) transcription.; format: functional
[3] = molecular target: Metabotropic glutamate receptor 7 (Homo sapiens, UniProt Q14831); assay: mGlu7 positive allosteric modulators, dose response, cell-based, calcium mobilization, Galpha15 (AID 743384); format: functional
[4] = P. falciparum Dd2 growth inhibitors, dose response, SYBR Green, dry powder samples (AID 1159566); format: functional, cell-based;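 note: potency for growth inhibition with lower SYBR green DNA signal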
[5] = P. falciparum ATP4 D1247Y mutant growth inhibitors, dose response, NITD609-resistant line, SYBR Green, dry powder (AID 1159571); format: functional, cell-based;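 note: parasites synchronized at ring stage by sorbitol before testing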
[6] = P. falciparum 3D7-ScDHODH growth inhibitors, dose response, SYBR Green, dry powder samples (AID 1159570); format: functional, cell-based;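 note: parasite growth measured after 72 hours of compound exposure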
[7] = P. falciparum Dd2 growth inhibitors, dose response, SYBR Green, cherry-picked samples (AID 1159567); format: functional, cell-based
Phospholipase D2 [8] = molecular target: T1, Phospholipase D2 (Homo sapiens, UniProt O14939); assay: PLD2 Cellular Concentration Response Study.; format: functional
Phospholipase D1 = Phospholipase D1 (Homo sapiens, UniProt Q13393); assay: PLD1 Cellular Concentration Response Study.; format: functional
Phospholipase D2 [9] = molecular target: T1, Phospholipase D2; assay: Discovery of PLD2 inhibitors using the Purified Enzyme Concentration Response Assay.; format: functional

T1 sequence (O14939 whole entry): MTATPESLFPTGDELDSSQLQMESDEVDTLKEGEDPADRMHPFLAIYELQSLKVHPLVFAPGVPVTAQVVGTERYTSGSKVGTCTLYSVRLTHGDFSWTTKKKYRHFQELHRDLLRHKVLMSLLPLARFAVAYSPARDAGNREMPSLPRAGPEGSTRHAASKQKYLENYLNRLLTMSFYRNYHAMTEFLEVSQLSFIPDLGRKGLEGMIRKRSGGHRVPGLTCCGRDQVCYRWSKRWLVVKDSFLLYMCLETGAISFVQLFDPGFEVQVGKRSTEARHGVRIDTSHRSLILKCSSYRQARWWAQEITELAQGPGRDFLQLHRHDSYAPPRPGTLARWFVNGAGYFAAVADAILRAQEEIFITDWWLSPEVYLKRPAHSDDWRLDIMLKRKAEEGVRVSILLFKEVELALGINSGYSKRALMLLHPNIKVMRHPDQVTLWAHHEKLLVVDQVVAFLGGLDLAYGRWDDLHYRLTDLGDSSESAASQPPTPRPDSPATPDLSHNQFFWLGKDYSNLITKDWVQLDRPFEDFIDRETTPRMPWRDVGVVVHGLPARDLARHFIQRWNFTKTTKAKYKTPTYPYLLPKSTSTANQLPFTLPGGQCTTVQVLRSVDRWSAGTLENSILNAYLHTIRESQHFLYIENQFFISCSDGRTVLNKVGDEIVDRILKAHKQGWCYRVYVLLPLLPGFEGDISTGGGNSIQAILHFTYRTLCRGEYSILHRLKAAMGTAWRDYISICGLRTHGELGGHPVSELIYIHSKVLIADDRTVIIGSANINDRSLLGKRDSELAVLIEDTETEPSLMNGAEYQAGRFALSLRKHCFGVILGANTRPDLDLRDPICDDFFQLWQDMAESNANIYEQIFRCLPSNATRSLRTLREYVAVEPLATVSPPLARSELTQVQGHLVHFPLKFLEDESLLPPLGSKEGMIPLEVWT
Metabotropic glutamate receptor 7, sequence (Q14831 whole entry): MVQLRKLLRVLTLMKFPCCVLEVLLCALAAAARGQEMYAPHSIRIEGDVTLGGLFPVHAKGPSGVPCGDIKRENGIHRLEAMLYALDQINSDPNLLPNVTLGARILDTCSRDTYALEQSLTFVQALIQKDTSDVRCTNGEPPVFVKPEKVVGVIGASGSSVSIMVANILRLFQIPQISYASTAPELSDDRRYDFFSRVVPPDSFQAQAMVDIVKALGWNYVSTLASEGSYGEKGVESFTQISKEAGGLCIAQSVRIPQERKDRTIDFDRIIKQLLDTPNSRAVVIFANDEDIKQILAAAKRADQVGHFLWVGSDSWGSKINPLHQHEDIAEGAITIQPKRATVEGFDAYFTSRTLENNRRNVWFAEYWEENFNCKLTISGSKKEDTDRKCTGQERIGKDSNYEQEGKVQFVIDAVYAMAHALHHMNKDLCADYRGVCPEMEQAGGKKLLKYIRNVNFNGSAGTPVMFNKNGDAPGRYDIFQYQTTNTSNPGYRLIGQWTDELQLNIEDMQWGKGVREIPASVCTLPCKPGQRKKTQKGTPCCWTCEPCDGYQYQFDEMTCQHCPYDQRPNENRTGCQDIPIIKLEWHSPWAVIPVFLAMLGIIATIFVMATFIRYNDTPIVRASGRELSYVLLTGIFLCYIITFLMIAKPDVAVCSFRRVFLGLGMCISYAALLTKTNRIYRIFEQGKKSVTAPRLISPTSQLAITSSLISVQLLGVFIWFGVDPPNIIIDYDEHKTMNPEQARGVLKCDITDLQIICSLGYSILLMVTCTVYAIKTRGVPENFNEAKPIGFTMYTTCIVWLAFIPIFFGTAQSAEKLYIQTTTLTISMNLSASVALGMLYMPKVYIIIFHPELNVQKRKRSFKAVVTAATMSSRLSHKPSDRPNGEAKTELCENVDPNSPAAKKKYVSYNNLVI
Phospholipase D1, sequence (Q13393 whole entry): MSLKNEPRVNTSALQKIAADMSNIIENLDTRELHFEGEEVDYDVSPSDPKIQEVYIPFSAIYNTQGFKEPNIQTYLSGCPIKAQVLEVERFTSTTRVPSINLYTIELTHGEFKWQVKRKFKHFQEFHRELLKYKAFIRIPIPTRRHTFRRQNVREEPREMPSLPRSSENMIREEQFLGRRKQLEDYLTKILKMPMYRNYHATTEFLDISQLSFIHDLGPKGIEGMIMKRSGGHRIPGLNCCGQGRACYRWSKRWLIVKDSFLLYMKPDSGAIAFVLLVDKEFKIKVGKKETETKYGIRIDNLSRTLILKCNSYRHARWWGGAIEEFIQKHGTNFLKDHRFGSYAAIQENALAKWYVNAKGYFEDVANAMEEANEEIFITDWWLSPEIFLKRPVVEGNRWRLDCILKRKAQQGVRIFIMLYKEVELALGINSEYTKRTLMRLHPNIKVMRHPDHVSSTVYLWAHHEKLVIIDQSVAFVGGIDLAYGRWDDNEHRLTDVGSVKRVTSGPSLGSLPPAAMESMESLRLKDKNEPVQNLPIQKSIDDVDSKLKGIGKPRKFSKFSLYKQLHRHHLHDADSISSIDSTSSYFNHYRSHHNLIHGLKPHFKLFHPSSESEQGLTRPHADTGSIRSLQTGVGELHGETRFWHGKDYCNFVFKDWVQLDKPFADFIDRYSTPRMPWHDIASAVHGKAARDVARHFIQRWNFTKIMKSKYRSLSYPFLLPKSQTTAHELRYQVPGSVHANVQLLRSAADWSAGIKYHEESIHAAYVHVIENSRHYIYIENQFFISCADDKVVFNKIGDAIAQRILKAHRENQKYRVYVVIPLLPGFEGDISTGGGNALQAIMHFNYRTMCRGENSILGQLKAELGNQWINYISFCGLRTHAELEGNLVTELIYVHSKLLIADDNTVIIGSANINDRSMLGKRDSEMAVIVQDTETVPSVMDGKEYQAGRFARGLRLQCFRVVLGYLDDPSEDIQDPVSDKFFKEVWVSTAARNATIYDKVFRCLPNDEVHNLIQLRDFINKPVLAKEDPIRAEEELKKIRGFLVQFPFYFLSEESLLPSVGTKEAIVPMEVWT

## CC(C)(C)CC(C)(C)c1ccc(O)cc1
[1]
  IC50: 25900 nM (inactive)
[2]
  IC50: 8370 nM (inactive)

## C/C(=N\Nc1ncc(Br)cn1)c1cccc([N+](=O)[O-])c1
Transthyretin
  EC50: > 167000 nM (inactive)

## COC(=O)c1ccc(-n2c(C)cc(C(=O)COc3ccc(NC(C)=O)cc3)c2C)cc1
[3]
  EC50: 2400 nM (active)

## COc1cccc(C#Cc2cnc3c(c2)C(=O)N([C@@H](C)CO)C[C@H](C)[C@@H](CN(C)C(=O)C2CCCCC2)O3)c1
[4]
  AC50: 635 nM (active)
[5]
  AC50: 972 nM (active)
[6]
  AC50: 783 nM (active)
[7]
  AC50: 889 nM (active)

## O=C(NCCN1CCC2(CC1)C(=O)NCN2Cc1cccnc1)c1cc2ccccc2o1
Phospholipase D2 [8]
  IC50: 2500 nM (active)
Phospholipase D1
  IC50: 20000 nM (active)
Phospholipase D2 [9]
  IC50: 12500 nM (active)
